{"source": "patent US4481191A", "about": "“Method for controlling blood pressure” (The Regents of the University of California, priority 1983, dated 1984)", "key": {"[1]": {"test_system": "guinea pig ileum", "details": "cited from earlier work"}, "[2]": {"test_system": "mouse vas deferens", "details": "cited from earlier work"}, "[3]": {"test_system": "rats", "details": "administered intravenously (i.v.); Wei et al., Life Sciences; cited from earlier work"}, "[4]": {"test_system": "visceral afferent receptors", "assay": "Sensitivity to morphine sulfate-induced bradycardia after subcutaneous pretreatment (FIG. 1)", "assay_type": "in vivo, rat", "details": "rats; for effect of prior administration on sensitivity to morphine sulfate bradycardia (ED50 of morphine sulfate for greater than 10% fall in heart rate): subcutaneously 30 minutes before testing with morphine sulfate", "from_the_text": "Turning to FIG. 1, the ordinate thereof represents the ED50 of morphine sulfate for producing a greater than 10% fall in heart rate in rats, and serves as an index of the sensitivity of the animal to the drug. Morphine sulfate functions as a \"challenge\" drug for producing bradycardia, and is a traditional standard for comparison. Lower ED50 values mean that the visceral afferent receptors are more sensitive. The abscissa of FIG. 1 represents doses of dynorphin(1-13) and Leu-enkephalin, respectively, in units of micromoles per kg body weight administered subcutaneously 30 minutes before testing with morphine sulfate.\nThe experiments for which the data is illustrated by FIGS. 1 and 2 were conducted on male Sprague-Dawley rats weighing 250-350 g. Animals were kept under a 12-hour light-dark cycle with food and water available ad libitum. Each rat was used only once. Procedures of infusion of chemicals into the brain and for measurement of heart rate were as reported by Wei, et al., Life Science, supra, and Wei, J. Pharmacol. Exp. Ther. 21b: 12-18 (1981).\nThe median effective dose of drugs (ED50) for producing bradycardia was determined in animals anesthetized with 2.5% urethane solution in saline, administered 1.25 g/kg i.p. Drugs, dissolved in distilled water, were injected intravenously into a cannulated femoral vein in a volume of 0.05 ml/100 gm body weight delivered over a period of less than 3 seconds. The pH of the solutions ranged from 5.8 to 6.8 units. The blood pressure was obtained from the left cannulated carotid artery. A Narcobiosystems type 7302 cardiotachometer couple was used to integrate heart rate from the individual oscillations in blood pressure due to the heart beat, and heart rate was recorded on a polygraph recorder. The baseline heart rate (HR1) was defined as the lowest rate observed in the two minutes before drug administration. The magnitude of the change in heart rate was calculated as [(HR2 -HR1)/HR1 ]×100%, with the second heart rate (HR2) measured as the lowest rate observed in the three minutes after drug injection. […]"}, "[5]": {"test_system": "mice", "details": "studies with mice; cited from earlier work"}, "[6]": {"details": "synthetic product; cited from earlier work"}}, "data": [{"substance": "Dynorphin", "values": [{"measurement": "agonist properties", "setting": "[1]", "value": "potent agonist properties"}, {"measurement": "agonist properties", "setting": "[2]", "value": "potent agonist properties"}]}, {"substance": "Leu-enkephalin", "values": [{"measurement": "median effective dose (ED50) for lowering of heart rate and blood pressure", "setting": "[3]", "value": 1.5, "unit": "µmol/kg"}, {"measurement": "effect of prior administration on sensitivity to morphine sulfate bradycardia (ED50 of morphine sulfate for greater than 10% fall in heart rate)", "setting": "[4]", "value": "enhances sensitivity"}]}, {"substance": "beta-endorphin: endogenous opioid peptide", "values": [{"measurement": "median effective dose (ED50) for lowering of heart rate and blood pressure", "setting": "[3]", "value": 0.07, "unit": "µmol/kg"}]}, {"substance": "dynorphin(1-13)", "values": [{"measurement": "analgesia", "setting": "[5]", "value": "relatively weak in producing analgesia"}, {"measurement": "activity in enhancing sensitivity relative to Leu-enkephalin", "setting": "[4]; subcutaneously 30 minutes before morphine sulfate", "value": "about 5 times"}, {"measurement": "effect of prior administration on sensitivity to morphine sulfate bradycardia (ED50 of morphine sulfate for greater than 10% fall in heart rate)", "setting": "[4]", "value": "enhances sensitivity"}, {"measurement": "potency in bioassays versus the naturally occurring peptide", "setting": "[6]", "value": "as potent in bioassays as the naturally occuring peptide"}]}, {"substance": "methionine-enkephalin", "values": [{"measurement": "median effective dose (ED50) for lowering of heart rate and blood pressure", "setting": "[3]", "value": 1.3, "unit": "µmol/kg"}]}]}
